Data reported in US9469650B2, “Melampomagnolide B derivatives” (BOARD OF TRUSTEES OF THE UNIVERSITY OF ARKANSAS, priority 2013, dated 2016).

Columns and labels:
MALME-3M [1] = tested on: MALME-3M
MALME-3M [2] = experiment: panel of 60 human tumor cell lines, growth inhibition (Melanoma); conditions: MALME-3M
RPMI-8226 = experiment: panel of 60 human tumor cell lines, growth inhibition (Leukemia); conditions: RPMI-8226

C=C1C(=O)O[C@H]2[C@H]1CC/C(COC(=O)N1CCC(F)(F)CC1)=C\CC[C@@]1(C)O[C@@H]21 [JVM 2-66]
CC50 (CCRF-CEM): 67.6 µM | CC50 (K-562): > 100 µM | CC50 (MOLT-4): > 100 µM | CC50 (SR): > 100 µM | CC50 (A549/ATCC): 66.2 µM | CC50 (HOP-62): 58.3 µM | CC50 (HOP-92): 11.1 µM | CC50 (NCI-H23): 48.2 µM | CC50 (NCI-H322M): 54.6 µM | CC50 (NCI-H460): 72.6 µM | CC50 (NCI-H522): 6.08 µM | CC50 (HCC-2998): 57.9 µM | CC50 (HCT-15): 10 µM | CC50 (HT29): 40.3 µM | CC50 (SW-620): 17.9 µM | CC50 (SF-268): 56.5 µM | CC50 (SF-295): 51.5 µM | CC50 (SNB-19): 62.7 µM | CC50 (SNB-75): 47.2 µM | CC50 (U251): 52.1 µM | CC50 (LOX IMVI): 22.5 µM | CC50 (MALME-3M [1]): 21.6 µM | CC50 (M14): 41.7 µM | CC50 (MDA-MB-435): 95.1 µM | CC50 (SK-MEL-2): 37 µM | CC50 (SK-MEL-28): 33 µM | CC50 (SK-MEL-5): 40.3 µM | CC50 (UACC-257): 36.5 µM | CC50 (UACC-62): 23.2 µM | CC50 (OVCAR-5): 48.1 µM | CC50 (OVCAR-8): 38.5 µM | CC50 (NCI/ADR-RES): 69.5 µM | CC50 (SK-OV-3): 63.8 µM | CC50 (786-0): 48.6 µM | CC50 (A498): 28.9 µM | CC50 (CAKI-1): 23.8 µM | CC50 (RXF 393): 5.33 µM | CC50 (TK-10): 23.5 µM | CC50 (UO-31): 22.2 µM | CC50 (PC-3): 53.8 µM | CC50 (MCF7): 26.4 µM | CC50 (MDA-MB-231/ATCC): 30.7 µM | CC50 (HS 578T): > 100 µM | CC50 (BT-549): 29.5 µM | CC50 (T-47D): > 100 µM | GI50 (MALME-3M [2]): 1.9 µM | TGI (MALME-3M [2]): 4.82E−6 | Percent Growth (MALME-3M [2]; Log10 Concentration −4.0): −72% | Percent Growth (MALME-3M [2]; Log10 Concentration −5.0): −39% | Percent Growth (MALME-3M [2]; Log10 Concentration −6.0): 84% | Percent Growth (MALME-3M [2]; Log10 Concentration −7.0): 91% | Percent Growth (MALME-3M [2]; Log10 Concentration −8.0): 99% | GI50 (RPMI-8226): 1.98 µM | TGI (RPMI-8226): 5.83E−6 | Percent Growth (RPMI-8226; Log10 Concentration −4.0): −46% | Percent Growth (RPMI-8226; Log10 Concentration −5.0): −25% | Percent Growth (RPMI-8226; Log10 Concentration −6.0): 81% | Percent Growth (RPMI-8226; Log10 Concentration −7.0): 97% | Percent Growth (RPMI-8226; Log10 Concentration −8.0): 98%

C=C1C(=O)O[C@H]2[C@H]1CC/C(COC(=O)CCC(=O)N1CCC(C)CC1)=C\CC[C@@]1(C)O[C@@H]21 [JVM 2-70]
CC50 (CCRF-CEM): 58.6 µM | CC50 (K-562): > 100 µM | CC50 (MOLT-4): > 100 µM | CC50 (SR): > 100 µM | CC50 (A549/ATCC): 75.9 µM | CC50 (HOP-62): 74.9 µM | CC50 (HOP-92): 36.4 µM | CC50 (NCI-H23): 64.3 µM | CC50 (NCI-H322M): 65.1 µM | CC50 (NCI-H460): 89.4 µM | CC50 (NCI-H522): 5.99 µM | CC50 (HCC-2998): 61 µM | CC50 (HCT-15): 32.6 µM | CC50 (HT29): 44.5 µM | CC50 (SW-620): 42.6 µM | CC50 (SF-268): 69.1 µM | CC50 (SF-295): 71 µM | CC50 (SNB-19): 63.4 µM | CC50 (SNB-75): 57 µM | CC50 (U251): 59.7 µM | CC50 (LOX IMVI): 41 µM | CC50 (MALME-3M [1]): 53.6 µM | CC50 (M14): 49.3 µM | CC50 (MDA-MB-435): 61.9 µM | CC50 (SK-MEL-2): 61 µM | CC50 (SK-MEL-28): 44.5 µM | CC50 (SK-MEL-5): 47.8 µM | CC50 (UACC-257): 47 µM | CC50 (UACC-62): 49.5 µM | CC50 (OVCAR-5): 49.9 µM | CC50 (OVCAR-8): 42.9 µM | CC50 (NCI/ADR-RES): 96 µM | CC50 (SK-OV-3): > 100 µM | CC50 (786-0): 58 µM | CC50 (A498): 45.2 µM | CC50 (CAKI-1): 36.2 µM | CC50 (RXF 393): 9.41 µM | CC50 (TK-10): 36.3 µM | CC50 (UO-31): 46.9 µM | CC50 (PC-3): 69.1 µM | CC50 (MCF7): 64.1 µM | CC50 (MDA-MB-231/ATCC): 52.8 µM | CC50 (HS 578T): > 100 µM | CC50 (BT-549): 29.3 µM | CC50 (T-47D): > 100 µM | Percent Growth (MALME-3M [2]; Log10 Concentration −4.0): −67% | Percent Growth (MALME-3M [2]; Log10 Concentration −5.0): −5% | Percent Growth (MALME-3M [2]; Log10 Concentration −6.0): 99% | Percent Growth (MALME-3M [2]; Log10 Concentration −7.0): 108% | Percent Growth (MALME-3M [2]; Log10 Concentration −8.0): 106% | GI50 (MALME-3M [2]; NCI five dose): 2.95 µM | TGI (MALME-3M [2]; NCI five dose): 8.96E−5 | Percent Growth (RPMI-8226; Log10 Concentration −4.0): −34% | Percent Growth (RPMI-8226; Log10 Concentration −5.0): 28% | Percent Growth (RPMI-8226; Log10 Concentration −6.0): 96% | Percent Growth (RPMI-8226; Log10 Concentration −7.0): 98% | Percent Growth (RPMI-8226; Log10 Concentration −8.0): 101% | GI50 (RPMI-8226; NCI five dose): 4.74 µM | TGI (RPMI-8226; NCI five dose): 2.82E−5
